Results: US8673617B2, “Culture medium for Haemophilus influenzae type B” (Sanofi Pasteur SA, priority 2007, dated 2014)

Columns and labels:
[1] = tested on: Haemophilus influenzae serotype b; assay: PRP production in liquid garden pea peptone-based culture medium as a function of heme source (sandwich ELISA on supernatant); type: cell-based; settings: for Mean PRP / PRP in mg/l Assay 1 / PRP in mg/l Assay 2: garden pea medium, 16 h
Procedure: The production of PRP obtained after 16 hours of bacterial culture in liquid plant peptones-based culture media in which the heme source was either hemin or protoporphyrin IX of animal origin (porcine protoporphyrin) in disodium salt form, or protoporphyrin IX of purely synthetic origin in disodium salt form was compared. […] An enzymatic hydrolysate of garden pea peptone provided by Kerry (Hy pea 7404) and a wheat peptone provided by Organotechnie (19559) were tested at a concentration in the culture medium equivalent to 0.87 g/l of protein nitrogen. By reference to the current methods for the production of PRP, PRP production was also measured in a medium that contains a peptone of animal origin, such as casein hydrolysate (HAC) provided by Solabia at a concentration in the medium equivalent to 0.87 g/l with increased concentrations of hemin (see table III).
(§1) 1.1) Preparation of the Media • 1.1.1. Stock solution of β-NAD (Fluka) at 1 g/l in water which was ultrafiltered and then sterilized by filtration through 0.22 μm. • 1.1.2. Stock solution of hemin (Sigma) at 0.25 g/l in water was ultrafiltered, comprising 5 ml of 25% aqueous ammonia (Cooper) to aid dissolution. The stock solution was sterilized by filtration through 0.22 μm. • 1.1.3. Stock solution of porcine protoporphyrin IX (Sigma) at 0.25 g/l in ultrafiltered water comprising 5 ml of 25% aqueous ammonia (Cooper) in order to facilitate the dissolution. The stock solution was sterilized by filtration through 0.22 μm. • 1.1.4. Stock solution of synthetic protoporphyrin IX at 0.25 g/l in ultrafiltered water comprising 5 ml of 25% aqueous ammonia (Cooper) in order to facilitate the dissolution. The stock solution was also heated to 80° C. in a water bath with stirring in order to complete the dissolution before being sterilized by filtration through 0.22 μm. The protoporphyrin IX, in disodium salt form, was synthesized according to the method described in the U.S. provisional patent application Ser. No. 12/057,574, filed Mar. 28, 2008 and application Ser. No. 60/943,735 and filed on Jun. 13, 2007 using the steps which are described in scheme 2. • The stock solutions of hemin and protoporphyrin IX were checked for their respective contents of active compounds after sterilizing filtration. The protoporphyrin IX and hemin contents were determined by Reversed Phase High Performance Liquid Chromatography (RP-HPLC). The chromatographic chain comprises a twin head pump module allowing the formation of a binary gradient, a programmable automatic injector, a diode array UV detector and a chromatographic column of the type Synergi 4 μm, Polar RP-80A (150×4.6) mm, ref 00F-4336-E0, Phenomenex. • The stock solution of hemin (Sigma) to be checked after filtration was diluted ⅓ in distilled water. The stock solutions of porcine protoporphyrin IX (Sigma) and of synthetic protoporphyrin IX to be checked after filtration were diluted ¼ in distilled water. In parallel, a calibration series was prepared in ammoniated water ranging from 0.025 g/l to 0.125 g/l of protoporphyrin IX from porcine protoporphyrin IX from Sigma (ref: 25838-5) and a calibration series ranging from 0.050 g/l to 0.150 g/l of hemin from hemin from Sigma (ref: H5533-256). The samples to be checked and the various solutions of the calibration series were injected in a volume of 20 μl (for the hemin solutions and samples) and of 5 μl (for the protoporphyrin IX solutions and samples). The initial mobile phase consisting of a volume for volume mixture of acetonitrile and 10 mM KH2PO4 pH 2.5 is set at a flow rate of 1 ml/min. A discontinuous gradient was then produced from this mobile phase in order to separate the molecules of interest which are detected at a wavelength of 400 nm. […]

[2] = tested on: Haemophilus influenzae serotype b; assay: PRP production in liquid wheat peptone-based culture medium as a function of heme source (sandwich ELISA on supernatant); type: cell-based; settings: for Mean PRP / PRP in mg/l Assay 1 / PRP in mg/l Assay 2: wheat medium, 16 h
Procedure: The production of PRP obtained after 16 hours of bacterial culture in liquid plant peptones-based culture media in which the heme source was either hemin or protoporphyrin IX of animal origin (porcine protoporphyrin) in disodium salt form, or protoporphyrin IX of purely synthetic origin in disodium salt form was compared. The hemin and protoporphyrin IX concentration ranges in the culture media varied from about 0.010 g/l to about 2 g/l so as to obtain PRP titration curves as a function of the heme source tested and as a function of the plant peptone tested. An enzymatic hydrolysate of garden pea peptone provided by Kerry (Hy pea 7404) and a wheat peptone provided by Organotechnie (19559) were tested at a concentration in the culture medium equivalent to 0.87 g/l of protein nitrogen. By reference to the current methods for the production of PRP, PRP production was also measured in a medium that contains a peptone of animal origin, such as casein hydrolysate (HAC) provided by Solabia at a concentration in the medium equivalent to 0.87 g/l with increased concentrations of hemin (see table III).
as §1

[3] = synthetic protoporphyrin IX 9.96 μg/l
[4] = synthetic protoporphyrin IX 49.8 μg/l
[5] = synthetic protoporphyrin IX 99.6 μg/l
[6] = synthetic protoporphyrin IX 249 μg/l
[7] = synthetic protoporphyrin IX 498 μg/l
[8] = synthetic protoporphyrin IX 996 μg/l
[9] = synthetic protoporphyrin IX 1494 μg/l
[10] = synthetic protoporphyrin IX 1992 μg/l
[11] = porcine protoporphyrin IX 7.48 μg/l
[12] = porcine protoporphyrin IX 37.4 μg/l
[13] = porcine protoporphyrin IX 74.8 μg/l
[14] = porcine protoporphyrin IX 187 μg/l
[15] = porcine protoporphyrin IX 374 μg/l
[16] = porcine protoporphyrin IX 748 μg/l
[17] = porcine protoporphyrin IX 1122 μg/l
[18] = porcine protoporphyrin IX 1496 μg/l

Substance: protoporphyrin IX [Synthetic protoporphyrin IX]
- Mean PRP [1, 3]: 11.55 mg/L
- PRP in mg/l Assay 1 [1, 3]: 11.3 mg/L
- PRP in mg/l Assay 2 [1, 3]: 11.8 mg/L
- Mean PRP [1, 4]: 136.5 mg/L
- PRP in mg/l Assay 1 [1, 4]: 139 mg/L
- PRP in mg/l Assay 2 [1, 4]: 134 mg/L
- Mean PRP [1, 5]: 356.5 mg/L
- PRP in mg/l Assay 1 [1, 5]: 330 mg/L
- PRP in mg/l Assay 2 [1, 5]: 383 mg/L
- Mean PRP [1, 6]: 488 mg/L
- PRP in mg/l Assay 1 [1, 6]: 474 mg/L
- PRP in mg/l Assay 2 [1, 6]: 502 mg/L
- Mean PRP [1, 7]: 387.5 mg/L
- PRP in mg/l Assay 1 [1, 7]: 383 mg/L
- PRP in mg/l Assay 2 [1, 7]: 392 mg/L
- Mean PRP [1, 8]: 499 mg/L
- PRP in mg/l Assay 1 [1, 8]: 524 mg/L
- PRP in mg/l Assay 2 [1, 8]: 474 mg/L
- Mean PRP [1, 9]: 513 mg/L
- PRP in mg/l Assay 1 [1, 9]: 503 mg/L
- PRP in mg/l Assay 2 [1, 9]: 523 mg/L
- Mean PRP [1, 10]: 488.5 mg/L
- PRP in mg/l Assay 1 [1, 10]: 480 mg/L
- PRP in mg/l Assay 2 [1, 10]: 497 mg/L
- Mean PRP [2, 3]: 30.7 mg/L
- PRP in mg/l Assay 1 [2, 3]: 33.5 mg/L
- PRP in mg/l Assay 2 [2, 3]: 27.9 mg/L
- Mean PRP [2, 4]: 318 mg/L
- PRP in mg/l Assay 1 [2, 4]: 317 mg/L
- PRP in mg/l Assay 2 [2, 4]: 319 mg/L
- Mean PRP [2, 5]: 413 mg/L
- PRP in mg/l Assay 1 [2, 5]: 389 mg/L
- PRP in mg/l Assay 2 [2, 5]: 437 mg/L
- Mean PRP [2, 6]: 347.5 mg/L
- PRP in mg/l Assay 1 [2, 6]: 345 mg/L
- PRP in mg/l Assay 2 [2, 6]: 350 mg/L
- Mean PRP [2, 7]: 394.5 mg/L
- PRP in mg/l Assay 1 [2, 7]: 380 mg/L
- PRP in mg/l Assay 2 [2, 7]: 409 mg/L
- Mean PRP [2, 8]: 402.5 mg/L
- PRP in mg/l Assay 1 [2, 8]: 401 mg/L
- PRP in mg/l Assay 2 [2, 8]: 404 mg/L
- Mean PRP [2, 9]: 354 mg/L
- PRP in mg/l Assay 1 [2, 9]: 358 mg/L
- PRP in mg/l Assay 2 [2, 9]: 350 mg/L
- Mean PRP [2, 10]: 404 mg/L
- PRP in mg/l Assay 1 [2, 10]: 378 mg/L
- PRP in mg/l Assay 2 [2, 10]: 430 mg/L

Substance: protoporphyrin IX
- protoporphyrin IX concentration to obtain about 400 mg/l of PRP ([1]; garden pea peptone and protoporphyrin IX-based medium): about 100 μg/l
- times less protoporphyrin IX than hemin required for maximum PRP production ([1]; garden pea peptone medium): About 12.5 times
- heme source concentration required for optimum / maximum PRP production ([1]; garden pea peptone medium (FIG. 1)): about 200 μg/l
- optimum PRP production ([1]; garden pea peptone medium, about 200 μg/l): ≈ 480 mg/l
- PRP concentration in the culture supernatant at maximum production ([1]; plant peptone medium, 100 to 200 μg/l): 0.4 g/L
- production of PRP (in words) ([1]; plant peptone medium, heme source at 10 μg/l): significant production of PRP
- production of PRP ([1]; plant peptone medium, heme source at 50 μg/l (FIGS. 1 and 2)): ≥ 100 µg/L
- protoporphyrin IX concentration to obtain about 400 mg/l of PRP ([2]; wheat peptone and protoporphyrin IX-based medium): about 100 μg/l
- times less protoporphyrin IX than hemin required for maximum PRP production ([2]; wheat peptone medium): About 15 times
- heme source concentration required for optimum / equivalent PRP production ([2]; wheat peptone medium (FIG. 2)): about 100 μg/l
- optimum PRP production ([2]; wheat peptone medium, about 100 μg/l): ≈ 400 mg/l

Substance: protoporphyrin IX [Porcine protoporphyrin IX]
- Mean PRP [1, 11]: 15.6 mg/L
- PRP in mg/l Assay 1 [1, 11]: 15.1 mg/L
- PRP in mg/l Assay 2 [1, 11]: 16.1 mg/L
- Mean PRP [1, 12]: 146 mg/L
- PRP in mg/l Assay 1 [1, 12]: 143 mg/L
- PRP in mg/l Assay 2 [1, 12]: 149 mg/L
- Mean PRP [1, 13]: 349 mg/L
- PRP in mg/l Assay 1 [1, 13]: 344 mg/L
- PRP in mg/l Assay 2 [1, 13]: 354 mg/L
- Mean PRP [1, 14]: 470 mg/L
- PRP in mg/l Assay 1 [1, 14]: 450 mg/L
- PRP in mg/l Assay 2 [1, 14]: 490 mg/L
- Mean PRP [1, 15]: 423.5 mg/L
- PRP in mg/l Assay 1 [1, 15]: 415 mg/L
- PRP in mg/l Assay 2 [1, 15]: 432 mg/L
- Mean PRP [1, 16]: 509 mg/L
- PRP in mg/l Assay 1 [1, 16]: 495 mg/L
- PRP in mg/l Assay 2 [1, 16]: 523 mg/L
- Mean PRP [1, 17]: 521 mg/L
- PRP in mg/l Assay 1 [1, 17]: 492 mg/L
- PRP in mg/l Assay 2 [1, 17]: 550 mg/L
- Mean PRP [1, 18]: 479 mg/L
- PRP in mg/l Assay 1 [1, 18]: 466 mg/L
- PRP in mg/l Assay 2 [1, 18]: 493 mg/L
- Mean PRP [2, 11]: 26.9 mg/L
- PRP in mg/l Assay 1 [2, 11]: 25.5 mg/L
- PRP in mg/l Assay 2 [2, 11]: 28.3 mg/L
- Mean PRP [2, 12]: 142.5 mg/L
- PRP in mg/l Assay 1 [2, 12]: 136 mg/L
- PRP in mg/l Assay 2 [2, 12]: 149 mg/L
- Mean PRP [2, 13]: 364 mg/L
- PRP in mg/l Assay 1 [2, 13]: 429 mg/L
- PRP in mg/l Assay 2 [2, 13]: 299 mg/L
- Mean PRP [2, 14]: 430 mg/L
- PRP in mg/l Assay 1 [2, 14]: 452 mg/L
- PRP in mg/l Assay 2 [2, 14]: 408 mg/L
- Mean PRP [2, 15]: 385.5 mg/L
- PRP in mg/l Assay 1 [2, 15]: 397 mg/L
- PRP in mg/l Assay 2 [2, 15]: 374 mg/L
- Mean PRP [2, 16]: 388 mg/L
- PRP in mg/l Assay 1 [2, 16]: 399 mg/L
- PRP in mg/l Assay 2 [2, 16]: 377 mg/L
- Mean PRP [2, 17]: 387.5 mg/L
- PRP in mg/l Assay 1 [2, 17]: 446 mg/L
- PRP in mg/l Assay 2 [2, 17]: 329 mg/L
- Mean PRP [2, 18]: 373.5 mg/L
- PRP in mg/l Assay 1 [2, 18]: 464 mg/L
- PRP in mg/l Assay 2 [2, 18]: 283 mg/L
